Laboratory results from patent publication US20260297542A1, “HERBICIDE RESISTANT PLANTS” (SYNGENTA CROP PROTECTION AG, priority 2023, published 2026).
Numbering of substitutions follows the chain as printed.

Experiments:
[1] = target: T1, AtPPO1 S305L Y361C L362F Y426M L479M (SEQ ID NO.134) (Arabidopsis thaliana, UniProt P55826, L479M/S305L/Y361C/Y362F/Y426M); assay: fluorescent Protoporphyrinogen Oxidase assay, crude extract; format: biochemical; conditions: read-out: percentage inhibition
T1 sequence (P55826 35-537 S305L/Y361C/Y362F/Y426M/L479M): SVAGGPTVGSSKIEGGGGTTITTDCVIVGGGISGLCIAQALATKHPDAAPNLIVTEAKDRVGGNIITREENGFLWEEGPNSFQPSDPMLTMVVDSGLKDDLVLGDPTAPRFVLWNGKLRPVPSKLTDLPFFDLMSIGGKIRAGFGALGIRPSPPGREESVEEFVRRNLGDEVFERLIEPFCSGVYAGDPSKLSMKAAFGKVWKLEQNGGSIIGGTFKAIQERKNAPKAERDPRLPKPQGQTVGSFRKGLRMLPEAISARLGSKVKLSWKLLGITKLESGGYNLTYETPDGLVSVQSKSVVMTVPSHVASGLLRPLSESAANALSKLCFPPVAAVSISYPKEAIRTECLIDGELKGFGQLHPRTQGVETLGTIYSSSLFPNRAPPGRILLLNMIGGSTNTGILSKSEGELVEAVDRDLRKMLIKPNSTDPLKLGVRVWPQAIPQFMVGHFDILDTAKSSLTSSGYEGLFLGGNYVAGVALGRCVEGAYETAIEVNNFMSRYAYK
Description: (§1) A pET24 plasmid containing a DNA sequence encoding each identified variant mutant of AtPPO1 derived from Arabidopsis thaliana, codon-optimised for expression in E. coli, and under control of a T7 promoter, was synthesised by Twist Bioscience. This plasmid was expressed in E. coli BL21 (DE3) hemG with 50 μg/mL kanamycin and 25 μg/mL chloramphenicol selection. Overnight cultures grown at 37° C. were used to inoculate 150 ml AIM (AIM-Terrific Broth Base including Trace elements, Formedium) in 500 ml shake flasks at a ratio of 1:100. Cultures were grown at 37° C., 200 rpm for 3 hours and then overnight at 26° C. Cells were harvested by 4° C. centrifugation for 20 minutes at 600 rpm. Cells were stored at −80° C. until extraction. 0.5-1 g of cell pellet from was thawed and resuspended in ratio of 1:1 in lysis buffer (20 mM Tris pH8, 500 mM sodium chloride, 10% glycerol, 1× complete Protease EDTA-free Inhibitor Tablet (Roche)). The resuspension was sonicated at 50% using 10-20 cycles of 10 seconds, 20 seconds off. After sonication Triton X-100 was added to the lysates at a final concentration of 0.5%. The lysates were centrifuged at 13.00 rpm for 10 min at 4° C. The crude extracts (i.e, supernatants) were stored at −80° C. Protein concentration was measured and calculated using the absorbance at 280 nm. Extracts were diluted 1 in 4 and 10 uL was analysed by SDS PAGE.
(§2) Variant crude extracts were assayed in a fluorescent Protoporphyrinogen Oxidase assay in black 384 well plates with a clear bottom. The total volume of the reaction mixture was 100 ul and contained 100 mM K2HPO4 pH7.2, 1 mM Na2EDTA, 5 mM DTT, 20% glycerol (v/v), 0.025% Tween 20 (v/v). Reactions were started with addition of 1 uM protoporphyrinogen IX final assay concentration. Fluorescence was monitored over 30 min using a Tecan plate reader with an excitation wavelength of 405 nm, emission wavelength of 635 nm, gain of 90 and 15 flashes. 10 ul of 3-fold serial dilution of crude extract in 100 mM K2HPO4 pH7.2, 1 mM Na2EDTA, 5 mM DTT, 20% glycerol (v/v), 0.05% Tween 20 (v/v) was tested in the assay against 1% DMSO and 100 ppm herbicide B to determine the correct amount of crude extract to add to the assay to observe activity. 10 ul of the appropriate crude extract dilution was then tested in the fluorescent Protoporphyrinogen Oxidase assay against DMSO and 10-fold dose response of each compound (herbicides A to E) with a top rate of 100 ppm.
(§3) The percentage inhibition was calculated as the activity in the presence of one of four concentrations of each herbicide compound A to E (note that the compounds labelled as A to E are identified hereinabove in the relevant section of the description) as a percentage of the enzyme activity in DMSO (Table 5).

[2] = target: T2, AtPPO1 S305L Y426M (SEQ ID NO.124) (Arabidopsis thaliana, UniProt P55826, S305L/Y426M); assay: as above; format: biochemical; conditions: read-out: percentage inhibition
T2 construct: made in house; host or cells: E. coli BL21 (DE3) hemG, crude extract
T2 sequence (P55826 35-537 S305L/Y426M): T1 sequence (P55826 35-537 S305L/Y361C/Y362F/Y426M/L479M) with C327Y, F328Y, M445L
Description: as §1, §2, §3

SMILES | inhibition at 0.1 ppm [1] | inhibition at 1 ppm [1] | inhibition at 10 ppm [1] | inhibition at 100 ppm [1] | inhibition at 0.1 ppm [2] | inhibition at 1 ppm [2] | inhibition at 10 ppm [2] | inhibition at 100 ppm [2]
CCOC(=O)COc1ncccc1Oc1cc(-n2c(=O)cc(C(F)(F)F)n(C)c2=O)c(F)cc1Cl [Herbicide A, epyrifenacil] | 0% | 40% | 83% | 92% | 34% | 82% | 100% | 100%
C#CCN1C(=O)C(F)(F)Oc2cc(F)c(-n3c(=O)n(C)c(=S)n(C)c3=O)cc21 [Herbicide B, trifludimoxazin] | 100% | 100% | 100% | 100% | 100% | 100% | 100% | 100%
CCOC(=O)C1(C)CC(c2cc(-n3c(=O)cc(C(F)(F)F)n(C)c3=O)c(F)cc2Cl)=NO1 (stereo not shown) [Herbicide C, 3-(2-chloro-4-fluoro-5-(3-methyl-2,6-dioxo-4-trifluoromethyl-3,6-dihydropyrimidin-1(2H)-yl)phenyl)-5-methyl-4,5-dihydroisoxazole-5-carboxylic acid ethyl ester] | 19% | 65% | 99% | 100% | 77% | 88% | 100% | 100%
CCOC(=O)[C@]1(C)CC(c2cc(-n3c(=O)n(C)c(=S)n(C)c3=O)c(F)cc2Cl)=NO1 [Herbicide D, ethyl (5S)-3-[2-chloro-5-(3,5-dimethyl-2,6-dioxo-4-thioxo-1,3,5-triazinan-1-yl)-4-fluoro-phenyl]-5-methyl-4H-isoxazole-5-carboxylate] | 0% | 56% | 85% | 100% | 53% | 85% | 100% | 100%
CC(C)N(C)S(=O)(=O)NC(=O)c1cc(-n2c(=O)cc(C(F)(F)F)n(C)c2=O)c(F)cc1Cl [Herbicide E, saflufenacil] | 0% | 39% | 80% | 99% | 38% | 78% | 100% | 96%
